Data as given in ChEMBL document CHEMBL2021902, “Type 1 phototherapeutic agents, part I: preparation and cancer cell viability studies of novel photolabile sulfenamides” (ACS Med Chem Lett, 2011).
The source made the active and inactive calls. The calls are words filed in the database; no cut-off is given here.

Columns and labels:
Format in all cases: functional, cell-based
U-937 = test: Cytotoxicity in UV-irradiated human U937 cells exposed to photosensitizer for 2 hrs before irradiation for 20 mins by WST-1 assay; conditions: for IC50: U-937, light or radiation study
HCT-116 = test: Cytotoxicity in UV-irradiated human HCT116 cells exposed to photosensitizer for 2 hrs before irradiation for 20 mins by WST-1 assay
KB = test: Cytotoxicity in UV-irradiated human KB cells exposed to photosensitizer for 2 hrs before irradiation for 20 mins by WST-1 assay
HT-29 = test: Cytotoxicity in UV-irradiated human HT-29 cells exposed to photosensitizer for 2 hrs before irradiation for 20 mins by WST-1 assay

Structure (SMILES) | Activity (U-937) | IC50 (U-937) [µM] | Activity (HCT-116) | Activity (KB) | Activity (HT-29)
O=[N+]([O-])c1ccc(SN2c3ccccc3Oc3ccccc32)cc1 | Dose-dependent effect | > 20 | – | – | –
O=[N+]([O-])c1ccc(SN(c2ccccc2)c2ccccc2)cc1 | Dose-dependent effect | 6.8 | – | – | –
O=[N+]([O-])c1ccc(SN2Cc3ccccc3Oc3ccccc32)cc1 | Dose-dependent effect | 17.2 | – | – | –
O=[N+]([O-])c1ccc(SN2c3ccccc3C=Cc3ccccc32)cc1 | Dose-dependent effect | 1.2 | Active | Active | Active
O=[N+]([O-])c1ccc(SN2c3ccccc3N=Nc3ccccc32)cc1 | Dose-dependent effect | > 20 | – | – | –
O=[N+]([O-])c1ccc(SN2c3ccccc3Cc3ccccc32)cc1 | Dose-dependent effect | 1.3 | Active | Active | Active
O=[N+]([O-])c1ccc(SN2Cc3ccccc3-c3ccccc32)cc1 | Dose-dependent effect | 7.3 | – | – | –
O=[N+]([O-])c1ccc(Sn2c3ccccc3c3ccccc32)cc1 | Dose-dependent effect | > 20 | – | – | –
CC1=Nc2ccc(Cl)cc2N(Sc2ccc([N+](=O)[O-])cc2)c2ccccc21 | Dose-dependent effect | 2 | – | – | –
O=[N+]([O-])c1ccc(SN2Cc3ccccc3Cc3ccccc32)cc1 | Dose-dependent effect | 5.7 | – | – | –
O=[N+]([O-])c1ccc(SN2c3ccccc3Sc3ccccc32)cc1 | Dose-dependent effect | 12.4 | – | – | –
O=[N+]([O-])c1ccc(SN2CCc3ccccc3-c3ccccc32)cc1 | Dose-dependent effect | 6 | – | – | –
